Consider 25 compounds from patent US10106526B2, “Inhibitors of cyclin-dependent kinase 7 (CDK7)” (SYROS PHARMACEUTICALS, INC., priority 2014, dated 2018).

One assay relates to A673 cells. Nature of the assay: Inhibition of proliferation of A673 cells (CyQUANT, 72 hour). Type of assay: cell-based, human. Conditions: 72 hour proliferation. On the procedure: A673 cells are a cell line derived from human muscle Ewing's sarcoma. Representative compounds of the invention were tested at different concentrations (from 4 μM to 126.4 pM; 0.5 log serial dilutions) for their ability to inhibit the proliferation of A673 cells. Known CDK inhibitors flavopiridol and triptolide were used as positive controls. Cells were grown in Dulbecco's Modified Eagle's Medium, +10% FBS+1 mM Sodium Pyruvate. The cells were cultured at 37° C. in a humidified chamber in the presence of 5% CO2. Proliferation assays were conducted over a 72 hour time period. CyQUANT® (Life Technologies, Chicago, Ill. USA) was used to assess the anti-proliferative effects of the compounds following manufacturer's directions and utilizing the reagents supplied with the CyQUANT® kit. In this table, “A” represents an IC50 of less than 500 nM; “B” an IC50 of between 500 nM and 5 μM; and “C” an IC50 of greater than 5 μM.

The next assay addresses T1, CDK7 (Homo sapiens, UniProt P50613).
T1 construct: purchased Life Technologies (Adapta kinase assay service)
Briefly: CDK7 kinase activity, Adapta kinase assay (Life Technologies). Type of assay: biochemical. Conditions: Adapta kinase assay at Life Technologies; 10 μM down to 0.514 nM, 3-fold serial dilutions; read-out: CDK7 Inhibition (IC50). How it is done: Compounds of the invention were assayed for CDK7 activity at Life Technologies™ (Grand Island, N.Y.) using their commercially available Adapta® kinase assay services. Compounds were tested at concentrations ranging from 10 μM down to 0.514 nM in a series of 3-fold serial dilutions. Details of these assays, including substrates used, are available on the Life Technologies web site (http://www.lifetechnologies.com/us/en/home/life-science/drug-discovery/target-and-lead-identification-and-validation/kinasebiology/kinase-activity-assays.html).

The test system of a further assay is Jurkat cells. Briefly: Inhibition of proliferation of Jurkat cells (CellTiter-Glo, 72 hour). The settings on record: 10 μM to 316 pM. It is filed as cell-based, human. On the procedure: Jurkat cells are a cell line established from a human T cell leukemia. Representative compounds of the invention were tested at different concentrations (from 10 μM to 316 pM; 0.5 log serial dilutions) for their ability to inhibit the proliferation of Jurkat cells. Known CDK inhibitors flavopiridol and triptolide were used as positive controls. Cells were grown in RPMI 1640+10% FBS+1% Glutamax. The cells were supplemented with FBS (Life Technologies) and 100 U·mL^− penicillin, 100 μg·mL^− streptomycin (Invitrogen) and cultured at 37° C. in a humidified chamber in the presence of 5% CO2. Proliferation assays were conducted over a 72 hour time period. CellTiter-Glo® (Promega Corporation, Madison, Wis. USA) was used to assess the anti-proliferative effects of the compounds following manufacturer's directions and utilizing the reagents supplied with the CellTiter-Glo® kit. In this table, “A” represents an IC50 of less than 500 nM; “B” an IC50 of between 500 nM and 5 μM; and “C” an IC50 of greater than 5 μM.
(Cellular ATP, detected with luciferase, serves as a proxy for viable cell number.)

Where a name gives a salt, the structure may show the parent alone. A value given as a limit tells only on which side of the number the result lay.

T1 sequence (P50613 whole entry): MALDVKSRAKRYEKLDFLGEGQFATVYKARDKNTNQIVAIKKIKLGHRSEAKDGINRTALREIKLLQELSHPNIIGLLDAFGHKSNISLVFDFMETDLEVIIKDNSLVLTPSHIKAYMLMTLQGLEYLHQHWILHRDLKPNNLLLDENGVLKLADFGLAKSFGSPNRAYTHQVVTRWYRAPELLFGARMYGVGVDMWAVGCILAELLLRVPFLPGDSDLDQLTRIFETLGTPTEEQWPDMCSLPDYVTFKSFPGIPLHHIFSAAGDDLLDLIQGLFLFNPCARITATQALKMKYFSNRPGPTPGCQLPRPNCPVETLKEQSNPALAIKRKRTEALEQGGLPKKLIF
T1 sequence (P51946 whole entry partner): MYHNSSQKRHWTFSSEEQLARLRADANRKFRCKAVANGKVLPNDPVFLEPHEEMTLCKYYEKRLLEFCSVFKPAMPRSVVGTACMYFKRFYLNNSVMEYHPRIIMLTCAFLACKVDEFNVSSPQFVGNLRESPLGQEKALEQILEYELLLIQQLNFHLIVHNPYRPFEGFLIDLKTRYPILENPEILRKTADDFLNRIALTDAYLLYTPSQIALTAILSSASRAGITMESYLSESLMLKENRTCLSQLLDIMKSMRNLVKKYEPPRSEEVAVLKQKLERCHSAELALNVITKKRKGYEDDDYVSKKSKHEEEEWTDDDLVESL
T1 sequence (P51948 whole entry partner): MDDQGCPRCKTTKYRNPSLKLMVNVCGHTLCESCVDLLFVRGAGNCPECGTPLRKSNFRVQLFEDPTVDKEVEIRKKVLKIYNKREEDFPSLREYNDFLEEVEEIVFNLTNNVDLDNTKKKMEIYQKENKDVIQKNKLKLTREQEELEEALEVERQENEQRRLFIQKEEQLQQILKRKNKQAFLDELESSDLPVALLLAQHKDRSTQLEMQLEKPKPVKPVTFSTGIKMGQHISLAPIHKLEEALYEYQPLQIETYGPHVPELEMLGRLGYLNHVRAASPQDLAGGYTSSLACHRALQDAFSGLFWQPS

For the compound `C=CC(=O)NC12CC(C(=O)N[C@H]3CCC[C@@H](Nc4ncc(Cl)c(-c5c[nH]c6ccccc56)n4)C3)(C1)C2` (racemic) [Compound 109, N-[(±)-3-{[5-chloro-4-(1H-indol-3-yl)pyrimidin-2-yl]amino}cyclohexyl]-3-(prop-2-enamido)bicyclo[1.1.1]pentane-1-carboxamide], the concentration for half-maximal inhibition (IC50) in the assay on A673 cells (Homo sapiens) was < 500 nM; at CDK7, > 1000 nM; in the assay on Jurkat cells (Homo sapiens), < 500 nM.
Regarding `C=CC(=O)N1CCN(CC2(O)CCC[C@@H](Nc3ncc(Cl)c(-c4c[nH]c5ccccc45)n3)C2)CC1` (single isomer, unassigned) [Compound 187], the concentration for half-maximal inhibition (IC50) in the assay on A673 cells (Homo sapiens) was < 500 nM; on CDK7, < 100 nM; in the assay with Jurkat cells (Homo sapiens), < 500 nM.
`CN(C)C/C=C/C(=O)Nc1cnn(CC2(O)CCC(Nc3ncc(Cl)c(-c4c[nH]c5ccccc45)n3)CC2)c1` (stereo not drawn) [Compound 114, (E)-N-(1-((4-(5-chloro-4-(1H-indol-3-yl)pyrimidin-2-ylamino)-1-hydroxycyclohexyl)methyl)-1H-pyrazol-4-yl)-4-(dimethylamino)but-2-enamide]: the IC50 in the assay with A673 cells (Homo sapiens) was > 5000 nM; on CDK7 it was < 100 nM; in the assay with Jurkat cells (Homo sapiens) it was > 5000 nM.
As to `C=CC(=O)N[C@@H]1CN[C@H](C(=O)N[C@H]2CCC[C@@H](Nc3ncc(Cl)c(-c4c[nH]c5ccccc45)n3)C2)C1` [Compound 153, (2S,4S)-4-acrylamido-N-((1S,3R)-3-(5-chloro-4-(1H-indol-3-yl)pyrimidin-2-ylamino)cyclohexyl)pyrrolidine-2-carboxamide], the half-maximal inhibitory concentration (IC50) is < 500 nM in the assay on A673 cells (Homo sapiens), < 100 nM on CDK7 and < 500 nM with Jurkat cells (Homo sapiens).
For `C=CC(=O)N1CCC(CN(C)[C@H]2CCC[C@@H](Nc3ncc(Cl)c(-c4c[nH]c5ccccc45)n3)C2)CC1` [Compound 167], the half-inhibitory concentration (IC50) was < 500 nM in the assay with A673 cells (Homo sapiens), < 100 nM at CDK7 and < 500 nM in the assay on Jurkat cells (Homo sapiens).
With `C=CC(=O)NCCC(=O)N[C@H]1CCC[C@@H](Nc2ncc(Cl)c(-c3c[nH]c4ccccc34)n2)C1` [Compound 172, N-(3-((1S,3R)-3-(5-chloro-4-(1H-indol-3-yl)pyrimidin-2-ylamino)cyclohexylamino)-3-oxopropyl)acrylamide], the concentration for half-maximal inhibition (IC50) on CDK7 is < 100 nM; with Jurkat cells (Homo sapiens), < 500 nM.
Regarding `CN(C)C/C=C/C(=O)NCCc1cc2ccc(Nc3ncc(Cl)c(-c4c[nH]c5ccccc45)n3)cc2[nH]1` [Compound 175, (E)-N-(2-(6-(5-chloro-4-(1H-indol-3-yl)pyrimidin-2-ylamino)-1H-indol-2-yl)ethyl)-4-(dimethylamino)but-2-enamide], the values for the IC50 at CDK7 and in the assay on Jurkat cells (Homo sapiens) were < 100 nM and < 500 nM, respectively.
In the case of `CN(C)C/C=C/C(=O)N1CC[C@@H](Nc2ncc(Cl)c(-c3c[nH]c4ccccc34)n2)C1` [Compound 176], the IC50 at CDK7 was < 100 nM; in the assay on Jurkat cells it was 500 to 5000 nM.
Turning to `C=CC(=O)N1CCN([C@@H]2CCC[C@@H](Nc3ncc(Cl)c(-c4c[nH]c5ccccc45)n3)C2)CC1` [Compound 180], the concentration for half-maximal inhibition (IC50) is < 500 nM with A673 cells, 100 to 1000 nM on CDK7 and < 500 nM in the assay on Jurkat cells.
On to `C=CC(=O)N1CCCC(CNC2CCC(Nc3ncc(Cl)c(-c4c[nH]c5ccccc45)n3)CC2)C1` (stereo not drawn) [Compound 190, 1-[3-[[[4-[[5-chloro-4-(1H-indol-3-yl)pyrimidin-2-yl]amino]cyclohexyl]amino]methyl]-1-piperidyl]prop-2-en-1-One], for which the IC50 was < 500 nM in the assay with A673 cells (Homo sapiens), < 100 nM at CDK7 and 500 to 5000 nM with Jurkat cells (Homo sapiens).
On to `C=CC(=O)N1CCN(C(=O)N[C@H]2CCC[C@@H](Nc3ncc(Cl)c(-c4c[nH]c5ccccc45)n3)C2)CC1` [Compound 201, 4-Acryloyl-N-((1S,3R)-3-(5-chloro-4-(1H-indol-3-yl)pyrimidin-2-ylamino)cyclohexyl)piperazine-1-carboxamide], for which the values for the IC50 on CDK7 and in the assay on Jurkat cells (Homo sapiens) were < 100 nM and 500 to 5000 nM, respectively.
`O=C(N[C@H]1CCC[C@@H](Nc2ncc(Cl)c(-c3c[nH]c4ccccc34)n2)C1)C1CCN(C(=O)/C=C/CN2CCOCC2)CC1` [Compound 202-1, N-((1S,3R)-3-((5-chloro-4-(1H-indol-3-yl)pyrimidin-2-yl)amino)cyclohexyl)-1-((E)-4-morpholinobut-2-enoyl)piperidine-4-carboxamide]: the values for the IC50 at CDK7 and with Jurkat cells (Homo sapiens) were > 1000 nM and 500 to 5000 nM, respectively.
On the same counts, the results for `O=C(N[C@@H]1CCC[C@H](Nc2ncc(Cl)c(-c3c[nH]c4ccccc34)n2)C1)C1CCN(C(=O)/C=C/CN2CCOCC2)CC1` [Compound 202-2, N-((1R,3S)-3-((5-chloro-4-(1H-indol-3-yl)pyrimidin-2-yl)amino)cyclohexyl)-1-((E)-4-morpholinobut-2-enoyl)piperidine-4-carboxamide] are < 100 nM and < 500 nM.
As to `C=CC(=O)N1CCN(C[C@@H]2CCC[C@H](Nc3ncc(Cl)c(-c4c[nH]c5ccccc45)n3)C2)CC1` [Compound 204, 1-(4-(((1R,3S)-3-((5-chloro-4-(1H-indol-3-yl)pyrimidin-2-yl)amino)cyclohexyl)methyl)-piperazin-1-yl)prop-2-en-1-One], the concentration for half-maximal inhibition (IC50) was < 100 nM on CDK7 and < 500 nM with Jurkat cells (Homo sapiens).
Consider `C=CC(=O)N1CCC(C(=O)N2CC[C@H](Nc3ncc(Cl)c(-c4c[nH]c5ccccc45)n3)C2)CC1` [Compound 210, (S)-1-(4-(3-((5-chloro-4-(1H-indol-3-yl)pyrimidin-2-yl)amino)pyrrolidine-1-carbonyl)piperidin-1-yl)prop-2-en-1-One], for which the results for the half-maximal inhibitory concentration (IC50) on CDK7 and in the assay on Jurkat cells (Homo sapiens) were 100 to 1000 nM and 500 to 5000 nM, respectively.
Take `C=CC(=O)N1CCC(O)(CN(C)[C@H]2CCC[C@@H](Nc3ncc(Cl)c(-c4c[nH]c5ccccc45)n3)C2)CC1` [Compound 225]: the half-maximal inhibitory concentration (IC50) is 100 to 1000 nM at CDK7 and > 5000 nM in the assay with Jurkat cells.
Consider `NCCCCC(=O)N1CC[C@@H](Nc2ncc(Cl)c(-c3c[nH]c4ccccc34)n2)C1` [Compound 1000, 5-((R)-3-(5-chloro-4-(1H-indol-3-yl)pyrimidin-2-ylamino)pyrrolidin-1-yl)-5-oxopentan-1-aminium chloride], for which the IC50 at CDK7 was < 100 nM; in the assay on Jurkat cells (Homo sapiens), 500 to 5000 nM.
In the case of `N[C@H]1CC[C@H](C(=O)Nc2cccc(Nc3ncc(Cl)c(-c4c[nH]c5ccccc45)n3)c2)CC1` [Compound 1002, trans-4-amino-N-(3-(5-chloro-4-(1H-indol-3-yl)pyrimidin-2-ylamino)phenyl) cyclohexanecarboxamide.HCl], the IC50 at CDK7 is < 100 nM; in the assay on Jurkat cells (Homo sapiens) it was 500 to 5000 nM.
Consider `O=C(Nc1cccc(Nc2ncc(Cl)c(-c3c[nH]c4ccccc34)n2)c1)[C@@H]1CCCNC1` [Compound 1004, (3R)—N-(3-(5-chloro-4-(1H-indol-3-yl)pyrimidin-2-ylamino)phenyl)piperidine-3-carboxamide], for which the IC50 at CDK7 is < 100 nM; in the assay with Jurkat cells (Homo sapiens) it was 500 to 5000 nM.
For `O=C(Nc1cccc(Nc2ncc(Cl)c(-c3c[nH]c4ccccc34)n2)c1)[C@H]1CCCNC1` [Compound 1005, (3S)—N-(3-(5-chloro-4-(1H-indol-3-yl)pyrimidin-2-ylamino)phenyl)piperidine-3-carboxamide], in that order: < 100 nM and 500 to 5000 nM.
Turning to `O=C(Nc1cccc(Nc2ncc(Cl)c(-c3c[nH]c4ccccc34)n2)c1)C1CCNCC1` [Compound 1006, N-(3-(5-chloro-4-(1H-indol-3-yl)pyrimidin-2-ylamino)phenyl)piperidine-4-carboxamide], the half-inhibitory concentration (IC50) at CDK7 was < 100 nM; in the assay on Jurkat cells (Homo sapiens), 500 to 5000 nM.
Turning to `Nc1ccc(C(=O)N[C@H]2CCC[C@@H](Nc3ncc(Cl)c(-c4c[nH]c5ccccc45)n3)C2)nc1` [Compound 1007, 5-amino-N-((1S,3R)-3-(5-chloro-4-(1H-indol-3-yl)pyrimidin-2-ylamino)cyclohexyl)picolinamide], the IC50 on CDK7 was < 100 nM; in the assay with Jurkat cells (Homo sapiens), 500 to 5000 nM.
In the case of `CN(C)CC=CC(=O)N1CCC(CNC2CCC(Nc3ncc(Cl)c(-c4c[nH]c5ccccc45)n3)CC2)CC1` (stereo not drawn) [compound 196], the IC50 is < 100 nM on CDK7 and 500 to 5000 nM with Jurkat cells.
Turning to `CN(C)CC=CC(=O)N1CCC(CNC2CCC(Nc3ncc(Cl)c(-c4c[nH]c5ccccc45)n3)CC2)CC1` (stereo not drawn) [compound 197], the IC50 at CDK7 is < 100 nM; in the assay with Jurkat cells it was 500 to 5000 nM.
Consider `O=C(Nc1cccc(Nc2ncc(Cl)c(-c3c[nH]c4ccccc34)n2)c1)C1CCCNC1` (stereo not drawn) [compound 1003], for which the half-maximal inhibitory concentration (IC50) was < 100 nM at CDK7 and 500 to 5000 nM with Jurkat cells.

Broadly, the IC50 is the concentration at which inhibition is half-maximal.
